Paper PMC9154796, “Triazoloquinoxalines-based DNA intercalators-Topo II inhibitors: design, synthesis, docking, ADMET and anti-proliferative evaluations” (Journal of Enzyme Inhibition and Medicinal Chemistry, 2022)

How the values were obtained:
HCT116 = test: MTT colorimetric anti-proliferative assay; settings: Homo sapiens, HCT-116, 72 h, read-out: IC50 HCT116
MCF-7 = test: MTT colorimetric anti-proliferative assay; settings: Homo sapiens, MCF7, 72 h, read-out: IC50 MCF-7
HepG2 = test: MTT colorimetric anti-proliferative assay; settings: Homo sapiens, HepG2, 72 h, read-out: IC50 HepG2
human Topo II = human Topo II (Homo sapiens, UniProt P11388); test: In vitro topoisomerase II inhibitory activity; format: biochemical; settings: supercoiled pHot1 DNA, mean ± SD of three experiments
Chain of human Topo II (P11388 whole entry): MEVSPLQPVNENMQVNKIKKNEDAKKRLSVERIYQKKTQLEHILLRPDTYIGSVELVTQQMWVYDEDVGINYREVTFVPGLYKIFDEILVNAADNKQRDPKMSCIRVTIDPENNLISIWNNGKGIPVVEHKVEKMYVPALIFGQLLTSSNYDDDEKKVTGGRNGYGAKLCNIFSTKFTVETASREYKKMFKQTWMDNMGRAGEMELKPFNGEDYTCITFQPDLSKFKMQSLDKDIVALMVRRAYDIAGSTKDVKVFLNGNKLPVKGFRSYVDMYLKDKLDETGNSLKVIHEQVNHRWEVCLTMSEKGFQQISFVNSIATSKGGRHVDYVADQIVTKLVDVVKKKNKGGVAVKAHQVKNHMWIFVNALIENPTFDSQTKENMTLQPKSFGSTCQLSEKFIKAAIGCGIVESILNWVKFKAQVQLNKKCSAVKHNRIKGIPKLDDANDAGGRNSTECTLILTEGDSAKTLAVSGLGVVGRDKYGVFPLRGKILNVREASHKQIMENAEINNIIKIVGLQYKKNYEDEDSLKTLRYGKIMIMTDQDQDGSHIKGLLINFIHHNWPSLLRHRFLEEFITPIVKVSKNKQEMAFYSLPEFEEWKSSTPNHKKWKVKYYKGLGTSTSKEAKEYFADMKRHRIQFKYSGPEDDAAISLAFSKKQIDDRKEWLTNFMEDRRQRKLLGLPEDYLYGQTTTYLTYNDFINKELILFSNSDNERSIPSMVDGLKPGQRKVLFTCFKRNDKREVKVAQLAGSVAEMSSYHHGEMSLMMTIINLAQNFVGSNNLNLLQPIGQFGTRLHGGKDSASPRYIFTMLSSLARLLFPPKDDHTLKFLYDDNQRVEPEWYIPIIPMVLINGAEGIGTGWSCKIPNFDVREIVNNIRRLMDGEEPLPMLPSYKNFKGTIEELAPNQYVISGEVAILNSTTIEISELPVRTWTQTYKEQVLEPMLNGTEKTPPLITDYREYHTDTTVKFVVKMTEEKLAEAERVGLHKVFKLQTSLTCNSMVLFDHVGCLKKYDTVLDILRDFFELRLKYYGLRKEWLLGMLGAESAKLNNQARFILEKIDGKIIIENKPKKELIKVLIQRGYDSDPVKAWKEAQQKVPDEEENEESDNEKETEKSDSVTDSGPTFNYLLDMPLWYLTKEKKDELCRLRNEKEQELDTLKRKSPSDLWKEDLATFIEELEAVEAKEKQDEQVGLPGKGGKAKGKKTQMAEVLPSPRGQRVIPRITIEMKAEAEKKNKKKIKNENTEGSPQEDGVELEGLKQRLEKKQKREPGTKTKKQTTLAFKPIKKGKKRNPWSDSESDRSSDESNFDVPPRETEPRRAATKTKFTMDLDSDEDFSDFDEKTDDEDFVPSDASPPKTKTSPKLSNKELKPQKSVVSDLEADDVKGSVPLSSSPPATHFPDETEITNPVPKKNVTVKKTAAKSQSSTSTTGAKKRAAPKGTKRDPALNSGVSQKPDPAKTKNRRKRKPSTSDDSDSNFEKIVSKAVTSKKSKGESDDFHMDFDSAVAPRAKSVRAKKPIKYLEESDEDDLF
Protocol: A mixture of human Topo II (2 µl), substrate super coiled pHot1 DNA (0.25 µg), 50 µg/ml test compound (2 µl), and assay buffer (4 µl). […] Then, the DNA was run for 1–2 h on 1% agarose gel in BioRad gel electrophoresis system followed by staining with GelRedTM stain for 2 h and destained for 15 min with TAE buffer. The gel was imaged via BioRad’s Gel DocTMEZ system. Both supercoiled and linear strands of DNA were incorporated into the gel as markers for DNA-Topo II intercalators. By using the GraphPad Prism version 5.0, the values of IC50 were calculated. Each reaction was performed in duplicate, and at least three independent determinations of each IC50 were made.

DNA = test: In vitro DNA/methyl green assay (DNA binding); settings: DNA/methyl green displacement, mean ± SD of three experiments
Excerpt: The extremely potent 6e, 7b, 7c, 7e and 7g were further assessed for their DNA-binding according to the reported procedure using methyl green dye[21]^,[22]^,[49]. DNA-binding affinities results were presented as IC50 and briefed in Table 3.
Methyl green dye can bind DNA to form coloured DNA/methyl green reversible complex. These complexes at neutral pH are still stable. The methyl green is displaced from DNA upon intercalating agents addition. Colourless carbinol was formed by the addition of H2O to the dye, leading to a dramatic decrease in spectrophotometric absorbance. ΔA value (the difference between DNA/methyl green complex and free cabinol) provides the simplest means for detecting the DNA-binding affinity and relative binding strength. IC50 values were determined using the GraphPadPrism 5.0 software[21]^,[22]^,[49].

VERO normal cells = test: Cytotoxicity against VERO normal cell lines; format: cell-based; settings: for IC50: Chlorocebus sabaeus, VERO normal cells, mean ± SD of three experiments; for fold safer in VERO normal cells compared to breast cancer cell lines (MCF-7): VERO versus MCF-7
Protocol: The cytotoxicity of these compounds against the cancer cell lines was from 3.41 to 9.51 µM. Derivatives 7b, 7c, 7e and 7g are respectively, 7.88, 10.81, 16.16 and 4.50 fold safer in VERO normal cells compared to breast cancer cell lines (MCF-7, the most sensitive cells).
The cytotoxicity assays were performed at Al-Azhar University, Pharmacology & Toxicology Department, Cairo, Egypt. Cancer cells from different cancer cell lines HCT-116, HepG2 and MCF-7, were purchased from ATCC, Manassas, USA and grown on the appropriate growth medium Roswell Park Memorial Institute medium (RPMI 1640) supplemented with […] of streptomycin, 100 units/mL of penicillin and 10% of heat-inactivated foetal bovine serum in a humidified, 5% (v/v) CO2 atmosphere at 37 °C Cytotoxicity assay by 3-[4,5-dimethylthiazole-2-yl]-2,5-diphenyltetrazolium bromide (MTT).
Cancer cell lines were trypsinized, counted and seeded into 96-well microtiter plates.

[1] = system: melanoma A375 cancer cells; parameters: method as in PMID 18513976; settings: cited from earlier work

Row | SMILES | IC50 (HCT116) [µM] | melting point [°C] | IC50 (MCF-7) [µM] | IC50 (HepG2) [µM] | IC50 (human Topo II) [µM] | IC50 (DNA) [µM] | IC50 (VERO normal cells) [µM] | fold safer in VERO normal cells compared to breast cancer cell lines (MCF-7) (VERO normal cells) [fold] | fold more active than fotemustine [1] [fold] | fold more active than imiquimod [1] [fold]
1 | CC(=O)c1ccc(Nc2nc3ccccc3n3cnnc23)cc1 [Compound 5, 1-{4-([1,2, 4]Triazolo[4,3-a]quinoxalin-4-ylamino)phenyl}ethan-1-one] | 11.4 ± 1.4 | 171 to 172 | 10.3 ± 1.28 | 12.7 ± 0.13 |  |  |  |  |  | 
2 | O=C(C=Cc1ccccc1)c1ccc(Nc2nc3ccccc3n3cnnc23)cc1 [Compound 6a, 1-{4-([1,2, 4]Triazolo[4,3-a]quinoxalin-4-ylamino)phenyl}-3-phenylprop-2-en-1-one] | 11.2 ± 1.2 | 275 to 277 | 10.1 ± 1.31 | 14.06 ± 0.13 |  |  |  |  |  | 
3 | O=C(C=Cc1ccc(Cl)cc1)c1ccc(Nc2nc3ccccc3n3cnnc23)cc1 [Compound 6b, 1-{4-([1,2, 4]Triazolo[4,3-a]quinoxalin-4-ylamino)phenyl}-3–(4-chlorophenyl)prop-2-en-1-one] | 31.2 ± 1.4 | 240 to 243 | 25.8 ± 2.8 | 35.2 ± 3.3 |  |  |  |  |  | 
4 | O=C(C=Cc1ccc(F)cc1)c1ccc(Nc2nc3ccccc3n3cnnc23)cc1 [Compound 6c, 1-{4-([1,2, 4]Triazolo[4,3-a]quinoxalin-4-ylamino)phenyl}-3–(4-fluorophenyl)prop-2-en-1-one] | 9.53 ± 0.93 | 247 to 249 | 8.61 ± 0.62 | 11.3 ± 1.1 |  |  |  |  |  | 
5 | O=C(C=Cc1c(Cl)cccc1Cl)c1ccc(Nc2nc3ccccc3n3cnnc23)cc1 [Compound 6d, 1-{4-([1,2, 4]Triazolo[4,3-a]quinoxalin-4-ylamino)phenyl}-3–(2,6-dichlorophenyl)prop-2-en-1-one] | 19.4 ± 1.7 | 260 to 263 | 14.6 ± 1.57 | 16.9 ± 1.4 |  |  |  |  |  | 
6 | Cc1ccc(C=CC(=O)c2ccc(Nc3nc4ccccc4n4cnnc34)cc2)cc1 [Compound 6e, 1-{4-([1,2, 4]Triazolo[4,3-a]quinoxalin-4-ylamino)phenyl}-3-(p-tolyl)prop-2-en-1-one] | 10.2 ± 1.7 | 245 to 247 | 9.95 | 10.9 ± 1.9 | 1.27 ± 0.4 | 38 ± 0.4 |  |  |  | 
7 | COc1ccc(C=CC(=O)c2ccc(Nc3nc4ccccc4n4cnnc34)cc2)cc1 [Compound 6f, 1-{4-([1,2, 4]Triazolo[4,3-a]quinoxalin-4-ylamino)phenyl}-3–(4-methoxyphenyl)prop-2-en-1-one] | 16.4 ± 1.7 | 250 to 253 | 13.2 ± 1.39 | 18 ± 1.6 |  |  |  |  |  | 
8 | O=C(C=Cc1cccc([N+](=O)[O-])c1)c1ccc(Nc2nc3ccccc3n3cnnc23)cc1 [Compound 6g, 1-{4-([1,2, 4]Triazolo[4,3-a]quinoxalin-4-ylamino)phenyl}-3–(3-nitrophenyl)prop-2-en-1-one] | 13.7 ± 1.7 | 257 to 259 | 12.2 ± 1.03 | 17.2 ± 1.5 |  |  |  |  |  | 
9 | O=C(C=Cc1ccc([N+](=O)[O-])cc1)c1ccc(Nc2nc3ccccc3n3cnnc23)cc1 [Compound 6h, 1-{4-([1,2, 4]Triazolo[4,3-a]quinoxalin-4-ylamino)phenyl}-3–(4-nitrophenyl)prop-2-en-1-one] | 12.4 ± 1.1 | 261 to 263 | 11.7 ± 1.68 | 15.6 ± 1.2 |  |  |  |  |  | 
10 | Clc1ccc(C2CC(c3ccc(Nc4nc5ccccc5n5cnnc45)cc3)=NN2)cc1 (stereo not shown) [Compound 7b, N-{4-[5–(4-Chlorophenyl)-4,5-dihydro-1H-pyrazol-3-yl]phenyl}-[1,2, 4]triazolo[4,3-a]quinoxalin-4-amine] | 6.9 ± 0.95 |  | 5.88 ± 0.74 | 7.46 ± 0.13 | 1.05 ± 0.4 | 32.5 ± 3 | 46.32 ± 0.2 | 7.88 |  | 
11 | Fc1ccc(C2CC(c3ccc(Nc4nc5ccccc5n5cnnc45)cc3)=NN2)cc1 (stereo not shown) [Compound 7c, N-{4-[5–(4-Fluorophenyl)-4,5-dihydro-1H-pyrazol-3-yl]phenyl}-[1,2, 4]triazolo[4,3-a]quinoxalin-4-amine] | 6.22 ± 0.63 |  | 4.45 ± 0.14 | 6.33 ± 0.14 | 0.94 ± 0.4 | 31.2 ± 2.9 | 48.11 ± 0.2 | 10.81 |  | 
12 | Cc1ccc(C2CC(c3ccc(Nc4nc5ccccc5n5cnnc45)cc3)=NN2)cc1 (stereo not shown) [Compound 7e, N-{4-[5-(p-Tolyl)-4,5-dihydro-1H-pyrazol-3-yl]phenyl}-[1,2, 4]triazolo[4,3-a]quinoxalin-4-amine] | 5.75 ± 0.37 |  | 3.41 ± 0.43 | 6.15 ± 1.2 | 0.89 ± 0.4 | 29.1 ± 2.2 | 55.09 ± 0.16 | 16.16 |  | 
13 | O=[N+]([O-])c1ccc(C2CC(c3ccc(Nc4nc5ccccc5n5cnnc45)cc3)=NN2)cc1 (stereo not shown) [Compound 7g, N-{4-[5–(4-Nitrophenyl)-4,5-dihydro-1H-pyrazol-3-yl]phenyl} -[1,2, 4]triazolo[4,3-a]quinoxalin-4-amine] | 8.96 ± 0.37 |  | 8.62 ± 0.95 | 9.51 ± 1.1 | 1.22 ± 0.4 | 36.5 ± 0.4 | 38.77 ± 0.16 | 4.50 |  | 
14 | COc1cccc2c1C(=O)c1c(O)c3c(c(O)c1C2=O)C[C@@](O)(C(=O)CO)C[C@@H]3O[C@H]1C[C@H](N)[C@H](O)[C@H](C)O1 [Doxorubicin, reference compound] |  |  | 6.75 ± 0.4 |  |  | 31.3 ± 1.8 |  |  |  | 
15 | CNc1nc2ccccc2n2c(CCc3ccccc3)cnc12 [EAPB0203] |  |  |  |  |  |  |  |  | 110 | 45

Further lines, with some results ahead:

Row | IC50 (HCT116) [µM] | melting point [°C] | IC50 (MCF-7) [µM] | IC50 (HepG2) [µM] | SMILES | IC50 (human Topo II) [µM] | IC50 (DNA) [µM] | IC50 (VERO normal cells) [µM] | fold safer in VERO normal cells compared to breast cancer cell lines (MCF-7) (VERO normal cells) [fold] | fold more active than fotemustine [1] [fold] | fold more active than imiquimod [1] [fold]
16 | 18.2 ± 1.6 | 150 to 152 | 15.4 ± 1.42 | 20.3 ± 1.9 | c1ccc(C2CC(c3ccc(Nc4nc5ccccc5n5cnnc45)cc3)=NN2)cc1 (stereo not shown) [Compound 7a, N-{4–(5-Phenyl-4,5-dihydro-1H-pyrazol-3-yl)phenyl}-[1,2, 4]triazolo[4,3-a]quinoxalin-4-amine] |  |  |  |  |  | 
17 | 10.2 ± 0.22 | 176 to 178 | 7.56 ± 0.92 | 12 ± 1.2 | Clc1cccc(Cl)c1C1CC(c2ccc(Nc3nc4ccccc4n4cnnc34)cc2)=NN1 (stereo not shown) [Compound 7d, N-{4-[5–(2,6-Dichlorophenyl)-4,5-dihydro-1H-pyrazol-3-yl]phenyl}-[1,2, 4]triazolo[4,3-a]quinoxalin-4-amine] |  |  |  |  |  | 
18 | 16.2 ± 1.6 | 195 to 197 | 14.5 ± 1.03 | 17.3 ± 1.9 | O=[N+]([O-])c1cccc(C2CC(c3ccc(Nc4nc5ccccc5n5cnnc45)cc3)=NN2)c1 (stereo not shown) [Compound 7f, N-{4-[5–(3-Nitrophenyl)-4,5-dihydro-1H-pyrazol-3-yl]phenyl} -[1,2, 4]triazolo[4,3-a]quinoxalin-4-amine] |  |  |  |  |  | 
